From ChEMBL document CHEMBL5543142, “Discovery of YFJ-36: Design, Synthesis, and Antibacterial Activities of Catechol-Conjugated β-Lactams against Gram-Negative Bacteria” (J Med Chem, 2024)

What was measured:
Klebsiella pneumoniae [1] = assay: Antibacterial activity against KPC-2 producing multidrug-resistant Klebsiella pneumoniae clinical isolate 15-1 assessed as inhibition of bacterial growth incubated for 18 to 20 hrs by two fold serial dilution assay; assay type: functional; conditions: time 18-20 hrs
Acinetobacter baumannii [2] = assay: Antibacterial activity against OXA-23 producing multidrug-resistant Acinetobacter baumannii clinical isolate 15-4 assessed as inhibition of bacterial growth incubated for 18 to 20 hrs by two fold serial dilution assay; assay type: functional; conditions: time 18-20 hrs
Pseudomonas aeruginosa [3] = assay: Antibacterial activity against IMP-4 producing multidrug-resistant Pseudomonas aeruginosa clinical isolate 15-1 assessed as inhibition of bacterial growth incubated for 18 to 20 hrs by two fold serial dilution assay; assay type: functional; conditions: time 18-20 hrs
Acinetobacter baumannii [4] = assay: Antibacterial activity against OXA-23 producing multidrug-resistant Acinetobacter baumannii clinical isolate 15-2 assessed as inhibition of bacterial growth incubated for 18 to 20 hrs by two fold serial dilution assay; assay type: functional; conditions: time 18-20 hrs
Pseudomonas aeruginosa [5] = assay: Antibacterial activity against Pseudomonas aeruginosa ATCC 27853 assessed as inhibition of bacterial growth incubated for 18 to 20 hrs by two fold serial dilution assay; assay type: functional; conditions: time 18-20 hrs
Klebsiella pneumoniae [6] = assay: Antibacterial activity against KPC-2 producing multidrug-resistant Klebsiella pneumoniae clinical isolate 15-3 assessed as inhibition of bacterial growth incubated for 18 to 20 hrs by two fold serial dilution assay; assay type: functional; conditions: time 18-20 hrs
Klebsiella pneumoniae [7] = assay: Antibacterial activity against KPC-2 producing multidrug-resistant Klebsiella pneumoniae clinical isolate 15-2 assessed as inhibition of bacterial growth incubated for 18 to 20 hrs by two fold serial dilution assay; assay type: functional; conditions: time 18-20 hrs
Pseudomonas aeruginosa [8] = assay: Antibacterial activity against IMP-4 producing multidrug-resistant Pseudomonas aeruginosa clinical isolate 15-4 assessed as inhibition of bacterial growth incubated for 18 to 20 hrs by two fold serial dilution assay; assay type: functional; conditions: time 18-20 hrs
Acinetobacter baumannii [9] = assay: Antibacterial activity against OXA-23 producing multidrug-resistant Acinetobacter baumannii clinical isolate 15-1 assessed as inhibition of bacterial growth incubated for 18 to 20 hrs by two fold serial dilution assay; assay type: functional; conditions: time 18-20 hrs
Acinetobacter baumannii [10] = assay: Antibacterial activity against OXA-23 producing multidrug-resistant Acinetobacter baumannii clinical isolate 15-5 assessed as inhibition of bacterial growth incubated for 18 to 20 hrs by two fold serial dilution assay; assay type: functional; conditions: time 18-20 hrs
Escherichia coli [11] = assay: Antibacterial activity against ESBL-producing multidrug-resistant Escherichia coli clinical isolate 14-2 assessed as inhibition of bacterial growth incubated for 18 to 20 hrs by two fold serial dilution assay; assay type: functional; conditions: time 18-20 hrs
Klebsiella pneumoniae [12] = assay: Antibacterial activity against KPC-2 producing multidrug-resistant Klebsiella pneumoniae clinical isolate 15-5 assessed as inhibition of bacterial growth incubated for 18 to 20 hrs by two fold serial dilution assay; assay type: functional; conditions: time 18-20 hrs
Escherichia coli [13] = assay: Antibacterial activity against ESBL-producing multidrug-resistant Escherichia coli clinical isolate 14-1 assessed as inhibition of bacterial growth incubated for 18 to 20 hrs by two fold serial dilution assay; assay type: functional; conditions: time 18-20 hrs
Pseudomonas aeruginosa [14] = assay: Antibacterial activity against IMP-4 producing multidrug-resistant Pseudomonas aeruginosa clinical isolate 15-5 assessed as inhibition of bacterial growth incubated for 18 to 20 hrs by two fold serial dilution assay; assay type: functional; conditions: time 18-20 hrs
Escherichia coli [15] = assay: Antibacterial activity against ESBL-producing multidrug-resistant Escherichia coli clinical isolate 14-4 assessed as inhibition of bacterial growth incubated for 18 to 20 hrs by two fold serial dilution assay; assay type: functional; conditions: time 18-20 hrs
Acinetobacter baumannii [16] = assay: Antibacterial activity against OXA-23 producing multidrug-resistant Acinetobacter baumannii clinical isolate 15-3 assessed as inhibition of bacterial growth incubated for 18 to 20 hrs by two fold serial dilution assay; assay type: functional; conditions: time 18-20 hrs
Acinetobacter baumannii [17] = assay: Antibacterial activity against OXA-23 producing multidrug-resistant Acinetobacter baumannii clinical isolate 17-3 assessed as inhibition of bacterial growth incubated for 18 to 20 hrs by two fold serial dilution assay; assay type: functional; conditions: time 18-20 hrs
Pseudomonas aeruginosa [18] = assay: Antibacterial activity against IMP-4 producing multidrug-resistant Pseudomonas aeruginosa clinical isolate 19-17 assessed as inhibition of bacterial growth incubated for 18 to 20 hrs by two fold serial dilution assay; assay type: functional; conditions: time 18-20 hrs
Acinetobacter baumannii [19] = assay: Antibacterial activity against OXA-23 producing multidrug-resistant Acinetobacter baumannii clinical isolate 17-2 assessed as inhibition of bacterial growth incubated for 18 to 20 hrs by two fold serial dilution assay; assay type: functional; conditions: time 18-20 hrs
Pseudomonas aeruginosa [20] = assay: Antibacterial activity against IMP-4 producing multidrug-resistant Pseudomonas aeruginosa clinical isolate 19-5 assessed as inhibition of bacterial growth incubated for 18 to 20 hrs by two fold serial dilution assay; assay type: functional; conditions: time 18-20 hrs
Pseudomonas aeruginosa [21] = assay: Antibacterial activity against IMP-4 producing multidrug-resistant Pseudomonas aeruginosa clinical isolate 17-13 assessed as inhibition of bacterial growth incubated for 18 to 20 hrs by two fold serial dilution assay; assay type: functional; conditions: time 18-20 hrs
Escherichia coli [22] = assay: Antibacterial activity against Escherichia coli ATCC35218 assessed as inhibition of bacterial growth incubated for 18 to 20 hrs by two fold serial dilution assay; assay type: functional; conditions: time 18-20 hrs
Pseudomonas aeruginosa [23] = assay: Antibacterial activity against IMP-4 producing multidrug-resistant Pseudomonas aeruginosa clinical isolate 19-1 assessed as inhibition of bacterial growth incubated for 18 to 20 hrs by two fold serial dilution assay; assay type: functional; conditions: time 18-20 hrs
[24] = MRT in ICR mouse at 20 mg/kg,iv administration measured upto 6 hrs by LC-MS/MS analysis; assay type: ADME, organism-based; conditions: in vivo
[25] = Half life in ICR mouse at 20 mg/kg,iv administration measured upto 6 hrs by LC-MS/MS analysis; assay type: ADME, organism-based; conditions: in vivo
[26] = AUC (0 to infinity) in ICR mouse at 20 mg/kg,iv administration measured upto 6 hrs by LC-MS/MS analysis; assay type: ADME, organism-based; conditions: in vivo
[27] = Volume of distribution at steady state in ICR mouse at 20 mg/kg,iv administration measured upto 6 hrs by LC-MS/MS analysis; assay type: ADME, organism-based; conditions: in vivo, read-out: Vdss
[28] = Clearance in ICR mouse at 20 mg/kg,iv administration measured upto 6 hrs by LC-MS/MS analysis; assay type: ADME, organism-based; conditions: in vivo

Structure (SMILES)	MIC (Klebsiella pneumoniae [1]) [µg/mL]	MIC (Acinetobacter baumannii [2]) [µg/mL]	MIC (Pseudomonas aeruginosa [3]) [µg/mL]	MIC (Acinetobacter baumannii [4]) [µg/mL]	MIC (Pseudomonas aeruginosa [5]) [µg/mL]	MIC (Klebsiella pneumoniae [6]) [µg/mL]	MIC (Klebsiella pneumoniae [7]) [µg/mL]	MIC (Pseudomonas aeruginosa [8]) [µg/mL]	MIC (Acinetobacter baumannii [9]) [µg/mL]	MIC (Acinetobacter baumannii [10]) [µg/mL]	MIC (Escherichia coli [11]) [µg/mL]	MIC (Klebsiella pneumoniae [12]) [µg/mL]	MIC (Escherichia coli [13]) [µg/mL]	MIC (Pseudomonas aeruginosa [14]) [µg/mL]	MIC (Escherichia coli [15]) [µg/mL]	MIC (Acinetobacter baumannii [16]) [µg/mL]	other results
CC(C)C(O/N=C(\C(=O)N[C@@H]1C(=O)N2C(C(=O)O)=C(CS[C@H]3CC[C@@H](NC(=O)c4ccc(O)c(O)c4Cl)CC3)CS[C@H]12)c1csc(N)n1)C(=O)O.O=C(O)C(F)(F)F (some centres undefined)	2	16	8	16	2	4	2	2	32	16	2	2	0.125	8	16	32	–
Nc1nc(/C(=N/OC(C(=O)O)C2CCCCC2)C(=O)N[C@@H]2C(=O)N3C(C(=O)O)=C(CSCCNC(=O)c4ccc(O)c(O)c4Cl)CS[C@H]23)c(Br)s1.O=C(O)C(F)(F)F (some centres undefined)	2	2	–	1	–	8	2	–	2	1	0.5	1	1	–	0.25	2	MIC (Acinetobacter baumannii [17]): 1 µg/mL; MIC (Pseudomonas aeruginosa [18]): 0.5 µg/mL; MIC (Acinetobacter baumannii [19]): 1 µg/mL; MIC (Pseudomonas aeruginosa [20]): 1 µg/mL; MIC (Pseudomonas aeruginosa [21]): 0.25 µg/mL; MIC (Escherichia coli [22]): 0.06 µg/mL; MIC (Pseudomonas aeruginosa [23]): 4 µg/mL
CC(C)C(O/N=C(\C(=O)N[C@@H]1C(=O)N2C(C(=O)O)=C(CSCCNC(=O)c3ccc(O)c(O)c3Cl)CS[C@H]12)c1csc(N)n1)C(=O)O.O=C(O)C(F)(F)F (some centres undefined)	0.5	4	2	4	8	0.5	0.5	4	8	4	2	0.25	0.06	4	0.5	4	–
CC(C)(C)C(O/N=C(\C(=O)N[C@@H]1C(=O)N2C(C(=O)O)=C(CS[C@H]3CC[C@@H](NC(=O)c4ccc(O)c(O)c4Cl)CC3)CS[C@H]12)c1csc(N)n1)C(=O)O.O=C(O)C(F)(F)F (some centres undefined)	4	4	8	4	8	32	16	16	8	8	4	1	0.5	8	4	8	–
CC(C)(O/N=C(\C(=O)N[C@@H]1C(=O)N2C(C(=O)O)=C(CSCCNC(=O)c3ccc(O)c(O)c3Cl)CS[C@H]12)c1csc(N)n1)C(=O)O.O=C(O)C(F)(F)F	8	32	2	32	0.5	8	4	4	32	64	2	2	0.25	4	1	32	–
Nc1nc(/C(=N/OC2(C(=O)O)CCC2)C(=O)N[C@@H]2C(=O)N3C(C(=O)O)=C(CSCCNC(=O)c4ccc(O)c(O)c4Cl)CS[C@H]23)cs1.O=C(O)C(F)(F)F	2	32	1	32	2	8	4	1	32	32	2	4	0.25	2	32	32	–
CC(C)(O/N=C(\C(=O)N[C@@H]1C(=O)N2C(C(=O)[O-])=C(C[N+]3(CCNC(=O)c4ccc(O)c(O)c4Cl)CCCC3)CS[C@H]12)c1csc(N)n1)C(=O)O.O=C(O)C(F)(F)F	–	–	–	–	–	–	–	–	–	–	–	–	–	–	–	–	MRT [24]: 26.4 min; half-life [25]: 33 min; AUC(0-inf) [26]: 11600 ng·h/mL; Vd [27]: 0.663 L/kg; clearance [28]: 25.2 mL/min/kg
